The results in this text go back to patent publication US20110015119A1, “NOVEL SEMI-SYNTHETIC GLYCOPEPTIDES AS ANTIBACTERIAL AGENTS” (LEAD THERAPEUTICS, INC., priority 2009, published 2011).

In brackets after ≈: the same amount, converted by molar mass. Like-named read-outs stand apart in the source and are kept apart here. Where only a bound is given, the exact number is not on record here.

The term MIC denotes the lowest concentration found to suppress growth.

Common to all, as to type: cell-based
Experiment [1] relates to Staphylococcus aureus 757 (MRSA). The experiment in a line: MIC by broth microdilution, SA 757. The settings on record: read-out: MIC SA 757. The method, then: (§1) Antibacterial activity in vitro is investigated by broth microdilution method in Meuller-Hinton broth as recommended by NCCLS. All strains tested are clinical isolates either sensitive or resistant to natural glycopeptides. MIC values were determined using the CLSI-recommended broth microdilution procedure (Clinical and Laboratory Standards Institute, Methods for Dilution Antimicrobial Susceptibility Tests for Bacteria That Grow Aerobically; Approved Standard-Seventh Edition.). Automated liquid handlers (Multidrop 384, Labsystems, Helsinki, Finland; Biomek 2000 and Multimek 96, Beckman Coulter, Fullerton Calif.) were used to conduct serial dilutions and liquid transfers. The MIC value for vancomycin is given for comparison. The abbreviations for organisms tested are as follow: SA 100—Staphylococcus aureus 100 (ATCC 29213); SA 757—Staphylococcus aureus 757 (MRSA); SA 2012—Staphylococcus aureus 2012 (VISA); SE 835—Staphylococcus epidermidis 835; SE 831—Staphylococcus epidermidis 831 (MRSE); EFc 101—Enterococcus faecalis 101 (ATCC 29212); EFc 848—Enterococcus faecalis 848 (VRE, Van A); EFcm 800—Enterococcus faecium 800; EFcm 752—Enterococcus faecium 752 (VRE, Van A); SPNE 1195—Streptococcus pneumoniae 1195 (ATCC 49619); SPY 712—Streptococcus pyogenes 712.
For orientation: Dilution methods test growth across graded concentrations, often in twofold steps.

Experiment [2] relates to Streptococcus pyogenes 712. The experiment in a line: MIC by broth microdilution, SPY 712. The method, then: as §1
Experiment [3] relates to Streptococcus pneumoniae 1195 (ATCC 49619). The experiment is described as follows: MIC by broth microdilution, SPNE 1195. As to the method:
as §1

The subject of experiment [4] is Enterococcus faecium 800. The experiment is described as follows: MIC by broth microdilution, EFcm 800. The method, then:
as §1

The subject of experiment [5] is Staphylococcus epidermidis 831 (MRSE). The experiment is described as follows: MIC by broth microdilution, SE 831. Conditions: read-out: MIC SE 831. The method, then: as §1
The subject of experiment [6] is Enterococcus faecalis 848 (VRE, Van A). The experiment in a line: MIC by broth microdilution, EFc 848. Conditions: class symbols. The method, then: as §1
The test system of experiment [7] is Enterococcus faecium 752 (VRE, Van A). The experiment is described as follows: MIC by broth microdilution, EFcm 752. The settings on record: class symbols. The method, then:
as §1

The test system of experiment [8] is Enterococcus faecalis 101 (ATCC 29212). The experiment in a line: MIC by broth microdilution, EFc 101. The settings on record: class symbols. The method, then:
as §1

For experiment [9], the system named is Staphylococcus epidermidis 835. The experiment in a line: MIC by broth microdilution, SE 835. As to the method:
as §1

The test system of experiment [10] is Staphylococcus aureus 100 (ATCC 29213). The experiment is described as follows: MIC by broth microdilution, SA 100. The method, then: as §1
The subject of experiment [11] is Staphylococcus aureus 2012 (VISA). The experiment in a line: MIC by broth microdilution, SA 2012. Conditions: class symbols. As to the method:
as §1

Where [12] appears, read: Streptococcus pyogenes, 712, read-out: MIC S PYO 712.
The mark [13] stands for this setting: Streptococcus pneumoniae, ATCC49619, read-out: MIC S PNE 1195.
[14] abbreviates: Enterococcus faecium, 800, read-out: MIC E FCM 800.
Where [15] appears, read: Staphylococcus epidermidis, MRSE.
Where [16] appears, read: Enterococcus faecalis, VRE, read-out: MIC E FC 848, Enterococcus faecalis 848 (VRE, Van A).
[17] abbreviates: Enterococcus faecium, VRE, read-out: MIC E FCM 752, Enterococcus faecium 752 (VRE, Van A).
Where [18] appears, read: Enterococcus faecalis, ATCC29212, read-out: MIC E FC 101, Enterococcus faecalis 101 (ATCC 29212).
Where [19] appears, read: Staphylococcus epidermidis, 835, read-out: MIC SE 835.
The mark [20] stands for this setting: Staphylococcus aureus, ATCC29213, read-out: MIC SA 100.
[21] abbreviates: Staphylococcus aureus, VISA, read-out: MIC SA 2012, Staphylococcus aureus 2012 (VISA).
Where [22] appears, read: Staphylococcus aureus 757 (MRSA), class symbols.
Setting [23] is: Streptococcus pyogenes 712, class symbols, read-out: MIC S PYO 712.
The mark [24] stands for this setting: ATCC49619, Streptococcus pneumoniae 1195 (ATCC 49619), class symbols, read-out: MIC S PNE 1195.
Where [25] appears, read: Enterococcus faecium 800, class symbols, read-out: MIC E FCM 800.
The mark [26] stands for this setting: Staphylococcus epidermidis 831 (MRSE), class symbols.
[27] abbreviates: Enterococcus faecalis 848 (VRE, Van A), read-out: MIC E FC 848.
[28] abbreviates: Enterococcus faecium 752 (VRE, Van A), read-out: MIC E FCM 752.
Where [29] appears, read: ATCC29212, Enterococcus faecalis 101 (ATCC 29212), read-out: MIC E FC 101.
[30] abbreviates: Staphylococcus epidermidis 835, class symbols, read-out: MIC SE 835.
The mark [31] stands for this setting: ATCC29213, Staphylococcus aureus 100 (ATCC 29213), class symbols, read-out: MIC SA 100.
[32] abbreviates: Staphylococcus aureus 2012 (VISA), read-out: MIC SA 2012.

As to `CCCCCOc1ccc(CCNC(=O)Oc2cc(O)c3c(c2)[C@@H](C(=O)O)NC(=O)[C@H]2NC(=O)[C@H](NC(=O)[C@@H]4NC(=O)[C@H](CC(N)=O)NC(=O)[C@H](NC(=O)[C@@H](CC(C)C)NC)[C@H](O)c5ccc(c(Cl)c5)Oc5cc4cc(c5O[C@@H]4O[C@H](CO)[C@@H](O)[C@H](O)[C@H]4O[C@H]4C[C@](C)(N)[C@H](O)[C@H](C)O4)Oc4ccc(cc4Cl)[C@H]2O)c2ccc(O)c-3c2)cc1` (atropisomer, axis not shown) [Compound 356], the MIC in experiment [1] (Staphylococcus aureus, MRSA) is 0.01 to 0.5 µg/mL (≈ 0.00594 to 0.297 µM); in [2] (setting [12]) it was 0.01 to 0.5 µg/mL (≈ 0.00594 to 0.297 µM); in experiment [3] (setting [13]) it was 0.01 to 0.5 µg/mL (≈ 0.00594 to 0.297 µM); in experiment [4] (setting [14]) it was 0.01 to 0.5 µg/mL (≈ 0.00594 to 0.297 µM); in experiment [5] (setting [15]), 0.01 to 0.5 µg/mL (≈ 0.00594 to 0.297 µM); in [6] (setting [16]) it was over 16 µg/mL. Also, the MIC is 4 to 8 µg/mL (≈ 2.38 to 4.75 µM) in experiment [7] (setting [17]); 0.01 to 0.5 µg/mL (≈ 0.00594 to 0.297 µM) in experiment [8] (setting [18]); 0.01 to 0.5 µg/mL (≈ 0.00594 to 0.297 µM) in experiment [9] (setting [19]); 0.01 to 0.5 µg/mL (≈ 0.00594 to 0.297 µM) in experiment [10] (setting [20]); 1 to 2 µg/mL (≈ 0.594 to 1.19 µM) in experiment [11] (setting [21]).

`CCCCCCc1ccc(S(=O)(=O)NCCCCCCNCc2c(O)cc3c(c2O)-c2cc(ccc2O)[C@H]2NC(=O)[C@@H]4NC(=O)[C@H](CC(N)=O)NC(=O)[C@H](NC(=O)[C@@H](CC(C)C)NC)[C@H](O)c5ccc(c(Cl)c5)Oc5cc4cc(c5O[C@@H]4O[C@H](CO)[C@@H](O)[C@H](O)[C@H]4O[C@H]4C[C@]5(C)NC(=O)O[C@@H]5[C@H](C)O4)Oc4ccc(cc4Cl)[C@@H](O)[C@H](NC2=O)C(=O)N[C@@H]3C(=O)O)cc1` (atropisomer, axis not shown) [Compound 305]: the MIC in experiment [1] (setting [22]) lay in the range of 0.01 to 0.5 µg/mL (≈ 0.00547 to 0.274 µM); in experiment [2] (setting [23]) it was 0.01 to 0.5 µg/mL (≈ 0.00547 to 0.274 µM); in experiment [3] (setting [24]), 0.01 to 0.5 µg/mL (≈ 0.00547 to 0.274 µM); in [4] (setting [25]) it was 0.01 to 0.5 µg/mL (≈ 0.00547 to 0.274 µM); in experiment [5] (setting [26]) it was 0.01 to 0.5 µg/mL (≈ 0.00547 to 0.274 µM); in experiment [6] (setting [27]), 8 to 16 µg/mL (≈ 4.38 to 8.75 µM). Besides, the MIC was 1 to 2 µg/mL (≈ 0.547 to 1.09 µM) in [7] (setting [28]); 0.01 to 0.5 µg/mL (≈ 0.00547 to 0.274 µM) in experiment [8] (setting [29]); 0.01 to 0.5 µg/mL (≈ 0.00547 to 0.274 µM) in [9] (setting [30]); 0.01 to 0.5 µg/mL (≈ 0.00547 to 0.274 µM) in experiment [10] (setting [31]); 0.01 to 0.5 µg/mL (≈ 0.00547 to 0.274 µM) in experiment [11] (setting [32]).

Consider `CCCCCOc1ccc(S(=O)(=O)NCCCCNCc2c(O)cc3c(c2O)-c2cc(ccc2O)[C@H]2NC(=O)[C@@H]4NC(=O)[C@H](CC(N)=O)NC(=O)[C@H](NC(=O)[C@@H](CC(C)C)NC)[C@H](O)c5ccc(c(Cl)c5)Oc5cc4cc(c5O[C@@H]4O[C@H](CO)[C@@H](O)[C@H](O)[C@H]4O[C@H]4C[C@](C)(NC(=O)CN)[C@H](O)[C@H](C)O4)Oc4ccc(cc4Cl)[C@@H](O)[C@H](NC2=O)C(=O)N[C@@H]3C(=O)O)cc1` (atropisomer, axis not shown) [Compound 346], for which the MIC in experiment [1] (setting [22]) is 0.01 to 0.5 µg/mL (≈ 0.00546 to 0.273 µM); in experiment [2] (setting [23]), 0.01 to 0.5 µg/mL (≈ 0.00546 to 0.273 µM); in experiment [3] (setting [24]) it was 0.01 to 0.5 µg/mL (≈ 0.00546 to 0.273 µM); in experiment [4] (setting [25]) it was 0.01 to 0.5 µg/mL (≈ 0.00546 to 0.273 µM); in experiment [5] (setting [26]), 0.01 to 0.5 µg/mL (≈ 0.00546 to 0.273 µM); in experiment [6] (setting [27]) it was over 16 µg/mL. Moreover, the MIC in [7] (setting [28]) lay in the range of 8 to 16 µg/mL (≈ 4.36 to 8.73 µM); in experiment [8] (setting [29]), 0.5 to 1 µg/mL (≈ 0.273 to 0.546 µM); in [9] (setting [30]) it was 0.01 to 0.5 µg/mL (≈ 0.00546 to 0.273 µM); in [10] (setting [31]) it was 0.01 to 0.5 µg/mL (≈ 0.00546 to 0.273 µM); in experiment [11] (setting [32]), 0.5 to 1 µg/mL (≈ 0.273 to 0.546 µM).

On to `CCCCCOCCNC(=O)Oc1cc(O)c2c(c1)[C@@H](C(=O)NC1C3CC4CC(C3)CC1C4)NC(=O)[C@H]1NC(=O)[C@H](NC(=O)[C@@H]3NC(=O)[C@H](CC(N)=O)NC(=O)[C@H](NC(=O)[C@@H](CC(C)C)NC)[C@H](O)c4ccc(c(Cl)c4)Oc4cc3cc(c4O[C@@H]3O[C@H](CO)[C@@H](O)[C@H](O)[C@H]3O[C@H]3C[C@](C)(N)[C@H](O)[C@H](C)O3)Oc3ccc(cc3Cl)[C@H]1O)c1ccc(O)c-2c1` (some centres unmarked) [Compound 340], for which the MIC was in the range of 0.01 to 0.5 µg/mL (≈ 0.00575 to 0.287 µM) in experiment [1] (Staphylococcus aureus, MRSA); 0.01 to 0.5 µg/mL (≈ 0.00575 to 0.287 µM) in [2] (setting [12]); 0.01 to 0.5 µg/mL (≈ 0.00575 to 0.287 µM) in [3] (setting [13]); 0.01 to 0.5 µg/mL (≈ 0.00575 to 0.287 µM) in experiment [4] (setting [14]); 0.01 to 0.5 µg/mL (≈ 0.00575 to 0.287 µM) in experiment [5] (setting [15]); 8 to 16 µg/mL (≈ 4.6 to 9.2 µM) in experiment [6] (setting [16]). The MIC was 2 to 4 µg/mL (≈ 1.15 to 2.3 µM) in experiment [7] (setting [17]); 0.01 to 0.5 µg/mL (≈ 0.00575 to 0.287 µM) in experiment [8] (setting [18]); 0.01 to 0.5 µg/mL (≈ 0.00575 to 0.287 µM) in experiment [9] (setting [19]); 0.01 to 0.5 µg/mL (≈ 0.00575 to 0.287 µM) in [10] (setting [20]); 0.5 to 1 µg/mL (≈ 0.287 to 0.575 µM) in experiment [11] (setting [21]).
